Data published in publication PMC4102434 (Biochemical pharmacology, 2012).

Tests used:
Type in all cases: biochemical
[1] = target: T1, ces1d (Rattus norvegicus, UniProt P16303); test: p-nitrophenylacetate hydrolysis, absorbance at […] nm; details: read-out: % inhibition at 10 nM
T1 sequence (P16303 19-565): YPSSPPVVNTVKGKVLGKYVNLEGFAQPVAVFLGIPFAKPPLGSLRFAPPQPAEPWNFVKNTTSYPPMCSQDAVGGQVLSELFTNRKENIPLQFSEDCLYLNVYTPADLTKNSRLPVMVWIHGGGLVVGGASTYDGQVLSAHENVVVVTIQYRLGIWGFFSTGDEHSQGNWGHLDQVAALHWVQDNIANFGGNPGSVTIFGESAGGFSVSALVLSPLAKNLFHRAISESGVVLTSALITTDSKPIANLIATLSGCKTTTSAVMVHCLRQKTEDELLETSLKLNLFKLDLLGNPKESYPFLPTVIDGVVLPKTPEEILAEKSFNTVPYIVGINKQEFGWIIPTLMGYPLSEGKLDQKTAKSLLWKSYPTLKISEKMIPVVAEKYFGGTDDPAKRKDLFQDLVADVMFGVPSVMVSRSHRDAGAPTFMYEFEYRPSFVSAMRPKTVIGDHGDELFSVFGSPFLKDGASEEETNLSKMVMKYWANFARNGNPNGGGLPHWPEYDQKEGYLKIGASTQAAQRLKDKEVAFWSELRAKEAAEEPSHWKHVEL

[2] = target: T2, ces2e (Mus musculus, UniProt Q8BK48); test: as above; details: read-out: % inhibition at 1 nM
T2 sequence (Q8BK48 27-559): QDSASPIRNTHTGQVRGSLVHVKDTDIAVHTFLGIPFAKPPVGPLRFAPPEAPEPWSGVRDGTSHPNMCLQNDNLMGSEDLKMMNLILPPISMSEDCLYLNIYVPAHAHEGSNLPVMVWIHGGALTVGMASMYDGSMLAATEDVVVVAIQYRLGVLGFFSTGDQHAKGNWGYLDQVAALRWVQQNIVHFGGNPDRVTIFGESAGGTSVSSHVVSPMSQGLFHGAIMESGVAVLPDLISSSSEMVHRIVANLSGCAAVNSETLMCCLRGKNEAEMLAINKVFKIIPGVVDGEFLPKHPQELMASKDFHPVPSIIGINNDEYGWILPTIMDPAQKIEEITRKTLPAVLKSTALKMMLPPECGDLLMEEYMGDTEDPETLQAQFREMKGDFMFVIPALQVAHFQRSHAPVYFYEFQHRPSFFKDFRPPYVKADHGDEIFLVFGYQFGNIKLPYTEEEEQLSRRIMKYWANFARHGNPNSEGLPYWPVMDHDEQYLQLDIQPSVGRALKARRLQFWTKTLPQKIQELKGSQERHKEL

[3] = target: T3, ces1e (Rattus norvegicus, UniProt Q63108); test: as above; details: read-out: % inhibition at 10 nM
T3 sequence (Q63108 19-561): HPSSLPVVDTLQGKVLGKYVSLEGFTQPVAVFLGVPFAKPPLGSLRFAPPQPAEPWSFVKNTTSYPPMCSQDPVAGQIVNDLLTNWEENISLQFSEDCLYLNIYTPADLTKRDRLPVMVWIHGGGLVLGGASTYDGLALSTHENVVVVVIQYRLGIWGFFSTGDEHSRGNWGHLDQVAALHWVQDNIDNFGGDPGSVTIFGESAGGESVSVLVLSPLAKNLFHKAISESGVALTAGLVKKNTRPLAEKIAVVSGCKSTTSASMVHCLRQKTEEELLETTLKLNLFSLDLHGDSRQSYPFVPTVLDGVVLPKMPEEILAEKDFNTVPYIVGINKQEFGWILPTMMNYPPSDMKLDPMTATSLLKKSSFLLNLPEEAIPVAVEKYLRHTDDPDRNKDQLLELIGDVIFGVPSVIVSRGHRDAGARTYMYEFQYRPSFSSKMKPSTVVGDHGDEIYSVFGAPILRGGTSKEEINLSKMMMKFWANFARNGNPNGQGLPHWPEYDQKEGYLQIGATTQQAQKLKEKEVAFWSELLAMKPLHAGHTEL

[4] = target: T4, ces1d (Mus musculus, UniProt Q8VCT4); test: as above; details: read-out: % inhibition at 1 nM
T4 sequence (Q8VCT4 19-565): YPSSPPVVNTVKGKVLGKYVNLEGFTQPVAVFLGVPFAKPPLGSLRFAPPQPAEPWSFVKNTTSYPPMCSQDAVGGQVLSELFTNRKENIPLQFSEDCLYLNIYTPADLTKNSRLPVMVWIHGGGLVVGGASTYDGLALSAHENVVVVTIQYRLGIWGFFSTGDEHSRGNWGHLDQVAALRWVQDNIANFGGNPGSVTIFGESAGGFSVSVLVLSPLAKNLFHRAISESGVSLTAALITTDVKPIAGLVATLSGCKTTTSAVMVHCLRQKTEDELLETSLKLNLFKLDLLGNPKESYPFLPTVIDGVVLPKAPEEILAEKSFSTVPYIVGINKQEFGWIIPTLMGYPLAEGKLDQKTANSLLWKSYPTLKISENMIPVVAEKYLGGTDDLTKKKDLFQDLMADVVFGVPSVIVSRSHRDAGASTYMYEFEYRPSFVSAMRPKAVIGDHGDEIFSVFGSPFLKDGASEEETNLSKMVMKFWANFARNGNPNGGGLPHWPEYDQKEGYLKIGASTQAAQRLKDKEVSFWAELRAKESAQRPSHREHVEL

[5] = target: T5, CES1 (Homo sapiens, UniProt P23141); test: as above; details: read-out: % inhibition at 100 nM
T5 sequence (P23141 18-567): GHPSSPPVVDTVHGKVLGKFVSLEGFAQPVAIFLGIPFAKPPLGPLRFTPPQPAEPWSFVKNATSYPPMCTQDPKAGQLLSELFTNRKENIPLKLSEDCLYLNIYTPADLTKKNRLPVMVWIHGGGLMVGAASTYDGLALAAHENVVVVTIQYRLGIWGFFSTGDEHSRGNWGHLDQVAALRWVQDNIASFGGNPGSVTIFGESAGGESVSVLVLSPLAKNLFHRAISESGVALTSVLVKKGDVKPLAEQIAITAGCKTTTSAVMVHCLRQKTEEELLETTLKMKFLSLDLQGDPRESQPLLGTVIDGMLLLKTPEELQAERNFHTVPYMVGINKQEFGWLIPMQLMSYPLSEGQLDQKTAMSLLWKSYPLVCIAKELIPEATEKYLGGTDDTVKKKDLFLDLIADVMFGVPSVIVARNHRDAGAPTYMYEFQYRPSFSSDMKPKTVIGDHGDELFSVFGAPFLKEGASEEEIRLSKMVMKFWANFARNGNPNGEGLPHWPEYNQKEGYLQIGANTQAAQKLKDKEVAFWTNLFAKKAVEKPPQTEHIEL

[6] = target: T6, ces2c (Mus musculus, UniProt Q91WG0); test: as above; details: read-out: % inhibition at 1 nM
T6 sequence (Q91WG0 27-561): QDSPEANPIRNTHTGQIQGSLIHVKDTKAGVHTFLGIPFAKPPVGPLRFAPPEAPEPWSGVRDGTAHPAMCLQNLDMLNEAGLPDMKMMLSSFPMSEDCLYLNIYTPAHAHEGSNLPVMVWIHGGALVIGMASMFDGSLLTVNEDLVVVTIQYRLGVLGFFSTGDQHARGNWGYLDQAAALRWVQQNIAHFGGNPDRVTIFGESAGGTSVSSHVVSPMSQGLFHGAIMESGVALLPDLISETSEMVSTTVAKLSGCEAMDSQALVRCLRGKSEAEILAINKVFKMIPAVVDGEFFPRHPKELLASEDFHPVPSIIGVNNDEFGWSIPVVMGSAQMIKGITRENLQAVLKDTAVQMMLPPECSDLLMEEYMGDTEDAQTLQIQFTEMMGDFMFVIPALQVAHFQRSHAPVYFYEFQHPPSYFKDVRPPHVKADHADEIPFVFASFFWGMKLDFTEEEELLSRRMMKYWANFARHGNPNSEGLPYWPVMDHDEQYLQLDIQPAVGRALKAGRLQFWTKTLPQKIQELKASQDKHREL

[7] = target: T6, ces2c; test: hydrolysis, absorbance at […] nm; details: 293T lysate, potassium phosphate pH 7.4
[8] = target: T4, ces1d; test: hydrolysis, absorbance at […] nm; details: 293T lysate, potassium phosphate pH 7.4
[9] = target: T3, ces1e; test: hydrolysis, absorbance at […] nm; details: 293T lysate, potassium phosphate pH 7.4
[10] = target: T1, ces1d; test: hydrolysis, absorbance at […] nm; details: 293T lysate, potassium phosphate pH 7.4
[11] = target: T2, ces2e; test: hydrolysis, absorbance at […] nm; details: 293T lysate, potassium phosphate pH 7.4
[12] = target: T7, CES2 (Homo sapiens, UniProt O00748); test: hydrolysis, absorbance at […] nm; details: 293T lysate, potassium phosphate pH 7.4
T7 sequence (O00748 27-559): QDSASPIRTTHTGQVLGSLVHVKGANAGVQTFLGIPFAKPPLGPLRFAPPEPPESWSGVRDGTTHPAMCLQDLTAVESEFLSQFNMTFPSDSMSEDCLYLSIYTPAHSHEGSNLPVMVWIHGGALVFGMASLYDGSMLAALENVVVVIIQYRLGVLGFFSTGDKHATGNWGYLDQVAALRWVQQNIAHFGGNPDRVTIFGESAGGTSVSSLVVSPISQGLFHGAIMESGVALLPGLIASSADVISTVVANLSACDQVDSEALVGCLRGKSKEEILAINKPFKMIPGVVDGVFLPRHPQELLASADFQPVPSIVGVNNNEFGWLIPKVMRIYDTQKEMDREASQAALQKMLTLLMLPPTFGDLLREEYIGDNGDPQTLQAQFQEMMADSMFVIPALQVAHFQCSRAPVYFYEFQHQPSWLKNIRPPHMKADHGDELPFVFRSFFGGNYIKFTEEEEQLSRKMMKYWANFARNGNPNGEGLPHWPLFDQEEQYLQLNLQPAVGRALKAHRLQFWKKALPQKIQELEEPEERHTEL

[13] = target: T5, CES1; test: hydrolysis, absorbance at […] nm; details: 293T lysate, potassium phosphate pH 7.4

CCCCCCCCCCC[C@@H](C[C@@H]1OC(=O)[C@H]1CCCCCC)OC(=O)[C@H](CC(C)C)NC=O [orlistat]
inhibition at 0.01 µM [1]: 20%
inhibition at 0.001 µM [2]: 55%
inhibition at 0.01 µM [3]: 20%
inhibition at 0.001 µM [4]: 12%
inhibition at 0.1 µM [5]: ~30%
inhibition at 0.001 µM [6]: 90%

CC(=O)Oc1ccc([N+](=O)[O-])cc1 [p-nitrophenylacetate]
hydrolysis, absorbance at 400 nm [7]: Inhibition of p-nitrophenylacetate hydrolysis of recombinant carboxylesterases from human (A), mouse (B) or rat
hydrolysis, absorbance at 400 nm [8]: Inhibition of p-nitrophenylacetate hydrolysis of recombinant carboxylesterases from human (A), mouse (B) or rat
hydrolysis, absorbance at 400 nm [9]: Inhibition of p-nitrophenylacetate hydrolysis of recombinant carboxylesterases from human (A), mouse (B) or rat
hydrolysis, absorbance at 400 nm [10]: Inhibition of p-nitrophenylacetate hydrolysis of recombinant carboxylesterases from human (A), mouse (B) or rat
hydrolysis, absorbance at 400 nm [11]: Inhibition of p-nitrophenylacetate hydrolysis of recombinant carboxylesterases from human (A), mouse (B) or rat
hydrolysis, absorbance at 400 nm [12]: Inhibition of p-nitrophenylacetate hydrolysis of recombinant carboxylesterases from human (A), mouse (B) or rat
hydrolysis, absorbance at 400 nm [13]: Inhibition of p-nitrophenylacetate hydrolysis of recombinant carboxylesterases from human (A), mouse (B) or rat
